Molecular target: T1, ACR-16 (Caenorhabditis elegans, UniProt P48180)
T1 sequence (P48180 20-498): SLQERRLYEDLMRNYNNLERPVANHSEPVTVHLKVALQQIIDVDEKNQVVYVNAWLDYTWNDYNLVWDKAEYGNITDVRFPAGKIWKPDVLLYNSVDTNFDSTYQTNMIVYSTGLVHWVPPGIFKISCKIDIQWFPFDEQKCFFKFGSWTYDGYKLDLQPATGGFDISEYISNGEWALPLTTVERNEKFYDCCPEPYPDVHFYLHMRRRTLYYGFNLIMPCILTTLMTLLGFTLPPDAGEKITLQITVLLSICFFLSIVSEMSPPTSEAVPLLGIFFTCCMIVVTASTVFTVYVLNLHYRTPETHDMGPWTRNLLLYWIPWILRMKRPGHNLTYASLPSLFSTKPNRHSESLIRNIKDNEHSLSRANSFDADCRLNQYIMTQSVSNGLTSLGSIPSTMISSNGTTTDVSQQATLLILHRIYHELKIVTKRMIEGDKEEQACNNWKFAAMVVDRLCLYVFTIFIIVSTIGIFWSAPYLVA
Assay: two-electrode voltage clamp, Xenopus oocytes, peak current
Assay type: cell-based

Q: With `CC(=O)OCC[N+](C)(C)C` [acetylcholine] as the molecule, how does the EC50 read?
A: Its EC50 is 24 µM.

Q: For `CN1CCC[C@H]1c1cccnc1` [nicotine], which EC50 is on record?
A: Its EC50 is 22 µM.
